# Values quoted from earlier work as cited in publication PMC3138524 (European journal of pharmacology, 2011).
# Positions of bridges follow the written chain, without caps; N, C: chain ends. Non-standard residues stand in square brackets, D forms with d. d2Nal = N[C@H](Cc1ccc2ccccc2c1)C(=O)O; Pen = CC(C)(S)[C@H](N)C(=O)O; Nle = CCCC[C@H](N)C(=O)O
# Columns and labels:
# Assay type in all cases: cell-based, HEK293
# MC5R [1] = target: T1, MC5R (Homo sapiens, UniProt P33032); conditions: read-out: Functional Assays cAMP EC50; n = 2
# MC4R [2] = target: T2, MC4R (Homo sapiens, UniProt P32245); conditions: read-out: Functional Assays cAMP EC50; n = 2
# MC3R [3] = target: T3, MC3R (Homo sapiens, UniProt P41968); conditions: read-out: Binding Affinities IC50; n = 2
# MC5R [4] = target: T1, MC5R; conditions: read-out: Binding Affinities IC50; n = 2
# MC3R [5] = target: T3, MC3R; conditions: read-out: Functional Assays cAMP EC50; n = 2
# MC4R [6] = target: T2, MC4R; conditions: read-out: Binding Affinities IC50; n = 2
# T1 sequence (P33032 whole entry): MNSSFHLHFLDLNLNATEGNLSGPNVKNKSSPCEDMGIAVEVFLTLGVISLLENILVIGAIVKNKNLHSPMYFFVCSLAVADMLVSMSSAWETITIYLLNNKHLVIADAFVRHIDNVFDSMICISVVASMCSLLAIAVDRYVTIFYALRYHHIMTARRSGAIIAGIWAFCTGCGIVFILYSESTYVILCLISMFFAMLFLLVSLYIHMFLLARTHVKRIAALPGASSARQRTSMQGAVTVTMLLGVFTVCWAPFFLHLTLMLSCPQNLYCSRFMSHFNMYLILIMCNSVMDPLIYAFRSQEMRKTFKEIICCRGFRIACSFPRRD
# T3 sequence (P41968 whole entry): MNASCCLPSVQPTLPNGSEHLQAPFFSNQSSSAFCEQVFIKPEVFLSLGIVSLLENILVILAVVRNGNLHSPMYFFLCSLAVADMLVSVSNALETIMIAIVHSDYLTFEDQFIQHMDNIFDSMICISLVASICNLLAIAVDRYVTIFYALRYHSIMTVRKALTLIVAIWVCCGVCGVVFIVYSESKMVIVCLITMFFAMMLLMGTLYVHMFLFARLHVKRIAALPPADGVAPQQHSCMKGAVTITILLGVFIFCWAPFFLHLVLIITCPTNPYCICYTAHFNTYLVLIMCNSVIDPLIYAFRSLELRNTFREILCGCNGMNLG
# T2 sequence (P32245 whole entry): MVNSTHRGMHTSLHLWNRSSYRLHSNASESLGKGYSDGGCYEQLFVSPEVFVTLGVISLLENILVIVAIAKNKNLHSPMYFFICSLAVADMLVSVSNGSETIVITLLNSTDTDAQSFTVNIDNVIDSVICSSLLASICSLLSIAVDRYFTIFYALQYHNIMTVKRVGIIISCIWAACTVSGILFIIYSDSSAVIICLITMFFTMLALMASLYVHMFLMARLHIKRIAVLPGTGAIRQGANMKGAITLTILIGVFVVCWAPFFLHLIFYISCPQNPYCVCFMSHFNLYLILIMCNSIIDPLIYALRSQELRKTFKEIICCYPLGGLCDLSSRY
EC50 (MC5R [1]),EC50 (MC4R [2]),IC50 (MC3R [3]),IC50 (MC4R [6]),Compound,also measured
> 1000 nM,> 10000 nM,–,–,"N=C(N)NCCC[C@@H]1NC(=O)[C@@H](Cc2ccccc2)NC(=O)[C@@H]2CCCN2C(=O)[C@@H](NC(=O)[C@H](N)Cc2ccccc2)CC(=O)NCCCC[C@@H](C(N)=O)NC(=O)[C@H](Cc2c[nH]c3ccccc23)NC1=O [compound 3, D-Phe-c[Asp-Pro-D-Phe-Arg-Trp-Lys]-NH2]",–
–,–,50 nM,–,Ac-Nle-c[Asp-Aba-D-Phe-Arg-Trp-Lys]-NH2 [compound 4],–
> 10000 nM,–,0.84 nM,–,Tyr-Val-Nle-Gly-His-D-Nal(2′)-Arg-Trp-Asp-Arg-Phe-Gly-NH2 [compound 1],IC50 (MC5R [4]): 1 nM; EC50 (MC3R [5]): > 10000 nM
–,> 1000 nM,–,0.7 nM,Ac-c[Cys-His-D-Phe-Cys]-N^α-Gubu-D-Trp-NH2 [compound 7],–
–,–,3 nM,–,Ac-[Nle][Pen]EH[d2Nal]RWCPKD-NH2 (disulfide 2-8) [compound 5],–
–,–,–,1.8 nM,Ac-c[Cys-His-D-Phe-N^α-Gubu-Cys]-Trp-NH2 [compound 6],–
